According to ChEMBL document CHEMBL5030558, “Optimization and Evaluation of Novel Antifungal Agents for the Treatment of Fungal Infection” (J Med Chem, 2021):
Calls of active or inactive are those of the source. No cut-off for these calls is given here.

Assays:
Nakaseomyces glabratus [1] = assay: Induction of drug resistant in Candida glabrata BG2 assessed as increase in compound IC50 at 8 to 12 times MIC; assay type: functional, organism-based
Trichophyton rubrum [2] = assay: Ex vivo antifungal activity against Trichophyton rubrum KCCM60450 infected in human nail assessed as reduction in ATP level at 1 % w/w after 24 hrs; assay type: functional; set-up: scale not given: the % may be the effect or the level left
Nakaseomyces glabratus [3] = assay: Antifungal activity against Candida glabrata BG2 assessed as reduction in fungal growth incubated for 48 hrs by CLSI based broth microdilution method; assay type: functional
[Candida] auris [4] = Synergistic antifungal activity against Candida auris B8841 assessed as FICI in presence of AmB after 48 hrs by checker board assay; assay type: functional, organism-based; settings: Candidozyma auris
Cryptococcus neoformans [5] = assay: Induction of morphological changes in Cryptococcus neoformans H99 assessed as reduction in capsule thickness at 4 ug/ml incubated for 24 hrs by TEM analysis; assay type: functional, organism-based; settings: dose 4.0 µg/ml
[6] = Cmax in cynomolgus monkey at 10 mg/kg, iv; assay type: ADME, organism-based, Macaca fascicularis; set-up: route intravenous, dose 10 mg/kg; settings: in vivo
[7] = Oral bioavailability in Sprague-Dawley rat at 10 mg/kg; assay type: ADME, organism-based; settings: in vivo
HaCaT = assay: Cytotoxicity against human HaCaT cells upto 12.5 uM incubated for 24 hrs; assay type: cell-based
Cryptococcus neoformans [8] = assay: Synergistic antifungal activity against Cryptococcus neoformans H99 assessed as FICI in presence of AmB after 48 hrs by checker board assay; assay type: functional, organism-based
Cryptococcus neoformans [9] = assay: Effect on cell wall integrity in Cryptococcus neoformans XW252 cotransfected with mCherry-Nop1-Gfp mutant assessed as increase in nuclear translocation of Crz1 at 8 ug/ml after 90 mins by fluorescence microscopic analysis; assay type: functional; settings: dose 8.0 µg/ml
[10] = Effective permeability by PAMPA method; assay type: ADME; settings: read-out: Peff
[11] = Effect on cell wall integrity in Cryptococcus neoformans H99 assessed as increase in HXL1 activation ratio at 8 ug/ml after 2 hrs by immunoblot analysis (reference value: 1); assay type: functional; settings: dose 8 µg/ml
[Candida] auris [12] = Synergistic antifungal activity against Candida auris B8841 assessed as FICI in presence of ICZ after 48 hrs by checker board assay; assay type: functional, organism-based; settings: Candidozyma auris
Cryptococcus neoformans [13] = assay: Fungicidal activity against Cryptococcus neoformans H99 at 8 times of MIC after 4 hrs by time-kill kinetics assay; assay type: functional, organism-based
[14] = AUC(0 to t) in cynomolgus monkey at 10 mg/kg, iv; assay type: ADME, organism-based, Macaca fascicularis; set-up: dose 10 mg/kg; settings: in vivo
[15] = Toxicity in po dosed Sprague-Dawley rat assessed as lethal dose measured after 14 days; assay type: organism-based; settings: in vivo, 336 h, time 14 day
[Candida] auris [16] = Additive antifungal activity against Candida auris B8841 assessed as assessed as FICI in presence of CSP after 48 hrs by checker board assay; assay type: functional, organism-based; settings: Candidozyma auris
Candida albicans [17] = assay: Induction of morphological changes in Candida albicans ATCC SC5314 assessed as reduction in cell wall thickness at 32 ug/ml incubated for 24 hrs by TEM analysis; assay type: functional, organism-based; settings: dose 32.0 µg/ml
[18] = Stability in human liver microsomes assessed as parent compound remaining after 30 mins; assay type: ADME, Microsome; settings: read-out: Stability
Candida albicans [19] = assay: Induction of morphological changes in Candida albicans ATCC SC5314 assessed as appearance of detached cytoplasm at 32 ug/ml incubated for 24 hrs by TEM analysis; assay type: functional, organism-based; settings: dose 32.0 µg/ml
[20] = system: Trichophyton mentagrophytes; assay: Fungicidal activity against Trichophyton mentagrophytes KCCM60449 at 4 times after 2 hrs by time-kill kinetics assay; assay type: functional, organism-based
Cytochrome P450 2C9 = Cytochrome P450 2C9 (Homo sapiens, UniProt P11712); assay: Inhibition of CYP2C9 (unknown origin) relative to control; assay type: ADME
Sequence of Cytochrome P450 2C9 (P11712 whole entry): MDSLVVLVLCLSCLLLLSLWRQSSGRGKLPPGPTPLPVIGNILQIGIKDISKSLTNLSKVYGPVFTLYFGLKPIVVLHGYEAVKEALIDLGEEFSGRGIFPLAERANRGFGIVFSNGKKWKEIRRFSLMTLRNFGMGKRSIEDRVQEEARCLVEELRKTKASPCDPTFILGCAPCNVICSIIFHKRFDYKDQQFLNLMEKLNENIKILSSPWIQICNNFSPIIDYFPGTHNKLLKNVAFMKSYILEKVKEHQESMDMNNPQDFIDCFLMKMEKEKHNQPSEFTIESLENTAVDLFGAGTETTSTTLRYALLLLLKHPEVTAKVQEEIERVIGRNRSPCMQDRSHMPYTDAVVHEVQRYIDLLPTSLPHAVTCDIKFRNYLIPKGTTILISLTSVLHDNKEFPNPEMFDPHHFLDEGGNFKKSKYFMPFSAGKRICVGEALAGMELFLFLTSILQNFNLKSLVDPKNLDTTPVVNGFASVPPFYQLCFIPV

Candida albicans [21] = assay: In vivo antifungal activity against Candida albicans 90028 infected in BALB/c mouse assessed as appearance of soft epidermal stratum corneum measured upto 48 hrs post infection by histopathological analysis; assay type: functional, organism-based; settings: time hrs <=48
[22] = Toxicity in Sprague-Dawley rat assessed as body weight gain at 500 to 1000 mg/kg, po measured after 3 days; assay type: organism-based; settings: in vivo, 72 h, dose 500-1000 mg/kg, time 3 day
Cytochrome P450 2D6 = Cytochrome P450 2D6 (Homo sapiens, UniProt P10635); assay: Inhibition of CYP2D6 (unknown origin) relative to control; assay type: ADME
Sequence of Cytochrome P450 2D6 (P10635 whole entry): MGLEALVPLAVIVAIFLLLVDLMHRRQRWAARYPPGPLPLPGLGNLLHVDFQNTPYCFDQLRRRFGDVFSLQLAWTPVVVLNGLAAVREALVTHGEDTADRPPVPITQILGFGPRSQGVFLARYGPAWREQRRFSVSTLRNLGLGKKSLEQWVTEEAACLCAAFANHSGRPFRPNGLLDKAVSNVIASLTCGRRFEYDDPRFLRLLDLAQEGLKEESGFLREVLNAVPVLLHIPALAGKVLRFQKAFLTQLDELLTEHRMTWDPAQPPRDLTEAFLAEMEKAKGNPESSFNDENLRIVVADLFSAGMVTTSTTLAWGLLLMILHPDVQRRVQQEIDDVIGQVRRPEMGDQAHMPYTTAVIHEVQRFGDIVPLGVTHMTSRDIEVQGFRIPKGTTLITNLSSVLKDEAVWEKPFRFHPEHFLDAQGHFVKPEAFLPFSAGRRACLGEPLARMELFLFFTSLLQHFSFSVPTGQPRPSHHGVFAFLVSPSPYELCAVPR

Cryptococcus neoformans [23] = assay: Antifungal activity against Cryptococcus neoformans H99 assessed as reduction in fungal growth incubated for 72 hrs by CLSI based broth microdilution method; assay type: functional
Trichophyton rubrum [24] = assay: Fungicidal activity against Trichophyton rubrum KCCM60450 at 4 times after 2 hrs by time-kill kinetics assay; assay type: functional, organism-based
[25] = Cmax in Sprague-Dawley rat at 2 mg/kg, iv; assay type: ADME, organism-based; set-up: route intravenous, dose 2 mg/kg; settings: in vivo
Cryptococcus neoformans [26] = assay: Induction of morphological changes in Cryptococcus neoformans H99 assessed as reduction in cell wall thickness at 4 to 8 ug/ml incubated for 24 hrs by TEM analysis; assay type: functional, organism-based; settings: dose 4-8 µg/ml
Cytochrome P450 2C19 = Cytochrome P450 2C19 (Homo sapiens, UniProt P33261); assay: Inhibition of CYP2C19 (unknown origin) relative to control; assay type: ADME
Sequence of Cytochrome P450 2C19 (P33261 whole entry): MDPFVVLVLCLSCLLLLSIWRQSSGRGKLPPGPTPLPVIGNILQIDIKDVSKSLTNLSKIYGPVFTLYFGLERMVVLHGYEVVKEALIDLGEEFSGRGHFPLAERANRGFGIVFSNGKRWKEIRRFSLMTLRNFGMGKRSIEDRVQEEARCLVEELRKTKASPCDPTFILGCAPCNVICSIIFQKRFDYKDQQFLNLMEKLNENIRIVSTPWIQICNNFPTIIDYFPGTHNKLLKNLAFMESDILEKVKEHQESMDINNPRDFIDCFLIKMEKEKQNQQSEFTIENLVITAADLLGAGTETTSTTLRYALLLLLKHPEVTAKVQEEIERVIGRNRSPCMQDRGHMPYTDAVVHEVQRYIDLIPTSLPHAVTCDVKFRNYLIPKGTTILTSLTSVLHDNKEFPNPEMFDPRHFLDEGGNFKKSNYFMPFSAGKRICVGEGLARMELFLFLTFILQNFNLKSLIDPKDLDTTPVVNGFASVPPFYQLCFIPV

Aspergillus fumigatus [27] = assay: Synergistic antifungal activity against Aspergillus fumigatus AF293 assessed as FICI in presence of AmB after 48 hrs by checker board assay; assay type: functional, organism-based
Trichophyton rubrum [28] = assay: Ex vivo antifungal activity against Trichophyton rubrum KCCM60450 infected in human nail assessed as reduction in ATP level at 0.1 % w/w after 24 hrs; assay type: functional; set-up: scale not given: the % may be the effect or the level left
Nakaseomyces glabratus [29] = assay: Synergistic antifungal activity against Candida glabrata BG2 assessed as FICI in presence of AmB after 48 hrs by checker board assay; assay type: functional, organism-based
Trichophyton rubrum [30] = assay: Fungicidal activity against Trichophyton rubrum KCCM60450 at 2 times MIC after 8 hrs by time-kill kinetics assay; assay type: functional, organism-based
[31] = Stability in human plasma assessed as parent compound remaining after 30 to 120 mins; assay type: ADME, cell-free; settings: time 30-120 min
[32] = AUC(0 to t) in Sprague-Dawley rat at 2 mg/kg, iv; assay type: ADME, organism-based; set-up: dose 2 mg/kg; settings: in vivo
[33] = Stability in dog hepatocytes assessed as parent compound remaining incubated for 60 mins; assay type: ADME, cell-based, Canis lupus familiaris, Hepatocyte; settings: read-out: Stability
Aspergillus fumigatus [34] = assay: Antifungal activity against Aspergillus fumigatus AF293 assessed as reduction in fungal growth incubated for 48 hrs by CLSI based broth microdilution method; assay type: functional
[35] = AUC(0 to t) in dog at 10 mg/kg, po; assay type: ADME, organism-based, Canis lupus familiaris; set-up: dose 10 mg/kg; settings: in vivo
[36] = Stability in rabbit hepatocytes assessed as parent compound remaining incubated for 60 mins; assay type: ADME, cell-based, Oryctolagus cuniculus, Hepatocyte; settings: read-out: Stability

With `CCCC(N)C(=O)NCCc1ccc(-c2ccc(Cl)c(Cl)c2)cc1.Cl` (racemic) as the compound, how does the Activity (Nakaseomyces glabratus [1]) read?
Its Activity is “inactive”.

And the Activity (Trichophyton rubrum [2])?
The Activity was 24.68%.

And the MIC (Nakaseomyces glabratus [3])?
Its MIC is 4 µg/mL.

And the Activity ([Candida] auris [4])?
Its Activity is “Active”.

And the Activity (Cryptococcus neoformans [5])?
The Activity was “Active”.

And the Cmax [6]?
The Cmax was 1080 ng/mL.

And the bioavailability [7]?
Its bioavailability is 39.8%.

What about the Activity (HaCaT) of the same compound?
Its Activity is “Non-Toxic”.

And the Activity (Cryptococcus neoformans [8])?
The Activity was “Active”.

And the Activity (Cryptococcus neoformans [9])?
The Activity was “Active”.

What about the Papp [10] of the same compound?
Its Papp is 58.9 ×10⁻⁶ cm/s.

And the Ratio [11]?
Its Ratio is 1.57.

What about the Activity ([Candida] auris [12]) of the same compound?
Its Activity is “inactive”.

What about the Activity (Cryptococcus neoformans [13]) of the same compound?
Its Activity is “Active”.

What about the AUC(0-t) [14] of the same compound?
The AUC(0-t) was 7150 ng·h/mL.

What about the Activity [15] of the same compound?
The Activity was 2000 mg/kg.

What about the Activity ([Candida] auris [16]) of the same compound?
Its Activity is “Active”.

And the Activity (Candida albicans [17])?
Its Activity is “Active”.

What about the remaining at 0.5 h [18] of the same compound?
Its remaining at 0.5 h is 90%.

And the Activity (Candida albicans [19])?
Its Activity is “Active”.

What about the Activity [20] of the same compound?
Its Activity is “Active”.

And the “inhibition (INH)” value (Cytochrome P450 2C9)?
Its value is 77.3%.

And the Activity (Candida albicans [21])?
Its Activity is “Active”.

What about the Activity [22] of the same compound?
Its Activity is “Non-Toxic”.

And the “inhibition (INH)” value (Cytochrome P450 2D6)?
Its value is 88.7%.

And the MIC (Cryptococcus neoformans [23])?
Its MIC is 1 µg/mL.

And the Activity (Trichophyton rubrum [24])?
Its Activity is “Active”.

What about the Cmax [25] of the same compound?
Its Cmax is 190 ng/mL.

What about the Activity (Cryptococcus neoformans [26]) of the same compound?
Its Activity is “Active”.

And the “inhibition (INH)” value (Cytochrome P450 2C19)?
The value was 86%.

What about the Activity (Aspergillus fumigatus [27]) of the same compound?
Its Activity is “Active”.

And the Activity (Trichophyton rubrum [28])?
Its Activity is 73.02%.

What about the Activity (Nakaseomyces glabratus [29]) of the same compound?
Its Activity is “Active”.

And the Activity (Trichophyton rubrum [30])?
The Activity was “Active”.

And the Stability [31]?
Its Stability is 97%.

What about the AUC(0-t) [32] of the same compound?
Its AUC(0-t) is 265 ng·h/mL.

What about the remaining at 1 h [33] of the same compound?
Its remaining at 1 h is 61.1%.

What about the MIC (Aspergillus fumigatus [34]) of the same compound?
Its MIC is 4 µg/mL.

And the AUC(0-t) [35]?
The AUC(0-t) was 30500 ng·h/mL.

And the remaining at 1 h [36]?
The remaining at 1 h was 64.6%.
